Where a name gives a salt, the structure may show the parent alone.
Experiment: collision cross section in nitrogen (drift tube, single-field); higher = larger gas-phase ion size
[1] = ion type: [M+H], ion source: APCI, ion mode: Positive
[2] = ion type: [M+H], ion source: ESI, ion mode: Positive
[3] = ion type: [M+Na], ion source: ESI, ion mode: Positive
[4] = ion type: [M-H], ion source: ESI, ion mode: Negative
[5] = ion source: APCI, ion mode: Positive, ion type: [M]+ (permanent cation)
[6] = ion source: ESI, ion mode: Positive, ion type: [M]+ (permanent cation)
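Note: chemical standards at 10 µM analysed by drift tube IMS-QTOF MS in about 3.95 torr nitrogen, mean of duplicate injections differing ≤1%, mass error below 10 ppm.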

| Structure (SMILES) | collision cross section in nitrogen [1] [Å²] | collision cross section in nitrogen [2] [Å²] | collision cross section in nitrogen [3] [Å²] | collision cross section in nitrogen [4] [Å²] | further results |
| --- | --- | --- | --- | --- | --- |
| CN(C)CCN(Cc1cccs1)c1ccccn1 [Methapyrilene hydrochloride] | 157.6 | 157.6 | 160.1 |  |  |
| Cc1oc(C)c(C(=O)Nc2ccccc2)c1C [Methfuroxam] | 152.5 | 153.3 |  |  |  |
| COc1nn(CSP(=S)(OC)OC)c(=O)s1 [Methidathion] |  |  | 163.4 |  |  |
| Cn1cc[nH]c1=S [Methimazole] | 116.9 | 118.1 |  |  |  |
| Cc1cccc(NC(=S)N(C)C)c1 [Methiuron] | 143.1 | 143.3 |  | 147.1 |  |
| COc1ccccc1OCC(O)COC(N)=O (stereo not drawn) [Methocarbamol] |  |  | 154.6 |  |  |
| COc1cccc(C(=O)NN(C(=O)c2cc(C)cc(C)c2)C(C)(C)C)c1C [Methoxyfenozide] |  |  | 201.9 | 194.2 |  |
| COC(=O)CCc1cc(C(C)(C)C)c(O)c(C(C)(C)C)c1 [Methyl 3,5-bis(tert-butyl)-4-hydroxyhydrocinnamate] |  |  | 176.2 | 178.7 |  |
| COC(=O)c1sccc1S(N)(=O)=O [Methyl 3-sulfamoylthiophene-2-carboxylate] |  |  | 148.5 | 141.1 |  |
| COC(=O)C1(O)c2ccccc2-c2ccccc21 [Methyl 9-hydroxy-9H-fluorene-9-carboxylate] |  |  |  | 150.1 |  |
| CCCCCCC(O)CCCCCCCCCCC(=O)OC (stereo not drawn) [Methyl 12-hydroxyoctadecanoate] |  |  | 194.2 |  |  |
| COS(=O)(=O)c1ccccc1 [Methyl benzenesulphonate] |  |  |  | 135 |  |
| CCCCCCCCCCCC(=O)OC [Methyl dodecanoate] |  |  |  | 158.5 |  |
| COc1ccc([C@@H]2CC(=O)c3c(O)cc(O[C@@H]4O[C@H](CO[C@@H]5O[C@@H](C)[C@H](O)[C@@H](O)[C@H]5O)[C@@H](O)[C@H](O)[C@H]4O)cc3O2)cc1OC [Methyl hesperidin] |  |  | 232.5 | 245.2 |  |
| CCCCCCCCCCCCCCCC(=O)OC [Methyl hexadecanoate] |  |  |  | 173.6 |  |
| COC(=O)c1cccnc1 [Methyl nicotinate] | 126.6 |  |  |  |  |
| CCCCCCCC(=O)OC [Methyl octanoate] |  |  |  | 146.7 |  |
| COC(=O)Cc1ccccc1 [Methyl phenylacetate] |  |  |  | 131.4 |  |
| CN(C)c1ccc(/N=N/c2ccccc2C(=O)O)cc1 [Methyl red] | 163.1 | 163 | 179.2 | 175.2 |  |
| C[C@](N)(Cc1ccc(O)c(O)c1)C(=O)O [Methyldopa sesquihydrate] |  | 149.6 |  |  |  |
| CCC(=O)/C=C/C1C(C)=CCCC1(C)C (stereo not drawn) [Methylionone] |  |  |  | 155.8 |  |
| CCCCCCCC[N+](C)(CCCCCCCC)CCCCCCCC [Methyltrioctylammonium chloride] |  |  |  |  | collision cross section in nitrogen [5]: 222.2 Å²; collision cross section in nitrogen [6]: 221.8 Å² |
| CCc1cccc(C)c1N(C(=O)CS(=O)(=O)O)C(C)COC (stereo not drawn) [Metolachlor ESA] |  |  | 177.4 | 173.9 |  |
| CCc1cccc(C)c1N(C(=O)C(=O)O)C(C)COC (stereo not drawn) [Metolachlor OA] |  |  |  | 165.9 |  |
| CCc1cccc(C)c1N(C(=O)CCl)C(C)COC (stereo not drawn) [Metolachlor] | 158.9 | 159.8 | 172.6 |  |  |
| COCCc1ccc(OCC(O)CNC(C)C)cc1 (stereo not drawn) [Metoprolol] | 171.7 | 172.1 | 164 |  |  |
| CSc1nnc(C(C)(C)C)c(=O)[nH]1 [Metribuzin-DA] | 144.2 | 145.2 | 161.3 | 144.8 |  |

| Structure (SMILES) | collision cross section in nitrogen [1] [Å²] | collision cross section in nitrogen [2] [Å²] | collision cross section in nitrogen [3] [Å²] | collision cross section in nitrogen [4] [Å²] | further results |
| --- | --- | --- | --- | --- | --- |
| CSc1nnc(C(C)(C)C)c(=O)n1N [Metribuzin] | 146.7 | 148.4 |  | 148.3 |  |
| Cc1ncc([N+](=O)[O-])n1CCO [Metronidazole] | 133.8 | 134.3 |  |  |  |
| CC(C)(C(=O)c1cccnc1)c1cccnc1 [Metyrapone] |  | 156.2 |  |  |  |
| COc1ccc(OC)c(C(O)CNC(=O)CN)c1 (stereo not drawn) [Midodrine hydrochloride] |  |  | 164.3 | 159.5 |  |
| CC#C[C@]1(O)CC[C@H]2[C@@H]3CCC4=CC(=O)CCC4=C3[C@@H](c3ccc(N(C)C)cc3)C[C@@]21C [Mifepristone] |  | 221.9 | 246.2 | 221.9 |  |
| Cc1[nH]c(=O)c(C#N)cc1-c1ccncc1 [Milrinone] | 157.1 | 156.3 |  | 147.4 |  |
| CN(c1nccc(=O)[nH]1)C1CCN(c2nc3ccccc3n2Cc2ccc(F)cc2)CC1 [Mizolastine] | 204.1 | 203.7 | 209.6 | 204.5 |  |
| CCCCC(CC)COC(=O)c1ccccc1C(=O)O (stereo not drawn) [Mono(2-ethylhexyl) phthalate] |  |  | 182.1 | 169.2 |  |
| O=C(O)CCCOC(=O)c1ccccc1C(=O)O [Mono(3-carboxypropyl)phthalate] |  |  | 156.3 |  |  |
| O=C(O)c1ccccc1C(=O)OCc1ccccc1 [Monobenzyl phthalate] |  |  | 157.4 | 160.8 |  |
| CCCCOC(=O)c1ccccc1C(=O)O [Monobutyl phthalate] |  |  |  | 151.7 |  |
| C[C@H]1C(=O)O[C@@H]2CCN3CC=C(COC(=O)[C@](C)(O)[C@]1(C)O)[C@H]23 [Monocrotaline] | 175.4 | 175.3 | 178.6 |  |  |
| O=C(O)c1ccccc1C(=O)OC1CCCCC1 [Monocyclohexyl phthalate] |  |  | 171.7 | 159.9 |  |
| CCOC(=O)c1ccccc1C(=O)O [Monoethyl phthalate] |  |  |  | 142 |  |
| O=C(O)c1ccccc1C(=O)O [Monopotassium phthalate] |  |  |  | 127.6 |  |
| O=C(O)c1ccc(Cl)cc1C(=O)O [Monosodium hydrogen 4-chlorophthalate] |  |  |  | 132.5 |  |
| CCCCCCCCCCCCCOP(=O)(O)O [Monotridecyl phosphate] |  |  |  | 169.9 |  |
| CN(C)C(=O)Nc1ccc(Cl)cc1 [Monuron] | 142.7 | 143 |  | 142.4 |  |
| O=c1c(O)c(-c2ccc(O)cc2O)oc2cc(O)cc(O)c12 [Morin hydrate] |  |  |  | 164.1 |  |
| CCCCC(C#N)(Cn1cncn1)c1ccc(Cl)cc1 (stereo not drawn) [Myclobutanil] |  | 174.7 |  |  |  |
| CCCCCCCCCCCCCC[N+](C)(C)C [Myristyltrimethylammonium chloride] |  |  |  |  | collision cross section in nitrogen [5]: 185.2 Å²; collision cross section in nitrogen [6]: 185.7 Å² |
| O=C1C=CC(=O)N1c1cccc(N2C(=O)C=CC2=O)c1 [N,N'-1,3-Phenylenedimaleimide] | 157.9 |  |  | 155 |  |
| c1ccc2cc(Nc3ccc(Nc4ccc5ccccc5c4)cc3)ccc2c1 [N,N'-Di-2-naphthyl-p-phenylenediamine] | 201.9 |  |  | 203.8 |  |
| CCCCNC(=S)NCCCC [N,N'-Dibutylthiourea] | 148.6 | 148.8 |  | 148.4 |  |
| CCCCNC(=O)NCCCC [N,N'-Dibutylurea] | 146.3 | 146 | 164.2 |  |  |
| S=C(NC1CCCCC1)NC1CCCCC1 [N,N'-Dicyclohexylthiourea] | 163 | 162.9 |  | 165.7 |  |
| C=CC(=O)NCNC(=O)C=C [N,N'-Methylenebisacrylamide] |  |  | 138.1 |  |  |

— the supplement of paper PMC12317010
